# Data: patent US20240209047A1, “GROWTH FACTOR CONJUGATES” (priority 2021, published 2024)
# “Also recorded” adds a separate entry of the source.
# Key:
# [1] = tested on: full thickness splinted wounds (8 mm diameter) of db/db mice; assay: Wound closure of full thickness splinted dermal wounds in diabetic mice; assay type: in vivo, mouse; conditions: for percentage wound closure: treated 6 times over 11 days (every other day)
# Description: In vivo studies: All procedures adhered to the recommendations in the Guide for the Care and Use of Laboratory Animals of the National Institutes of Health. The protocol for this experiment was approved by the Institutional Animal Care and Use Committee of University of California, Davis.
# Creating of full thickness splinted dermal wounds: Genetically diabetic 12 week old male mice (db/db; BKS.Cg-m+/+Leprdb; Jackson Laboratories, Bar Harbor, ME) were used for this study. […] 8 mm Full thickness wounds were created on the dorsal surface of db/db mice as described previously (Park S. A. et al., 2014).
# Mice in the sEGF group received native EGF (300 ng) dissolved in PEG immediately after wounding and twice daily until day 10. The NoTx group remained without any treatment through the study period. All wounds were dressed using a sterile coverslip and a semi-occlusive bandage.
# (§1) Clinical and histological analyses: All analyses were performed as described previously (Park S. A. et al., 2014). Briefly, wounds were clinically evaluated and imaged daily, and the wound area was measured using image analysis software, and percentage wound closure was calculated. Mice were humanely euthanized on day 11 and the entire wound bed was harvested. Histologic analyses was performed by a board-certified veterinary pathologist.
# [2] = Persistence of EGF in the wound bed by ELISA specific to anti-human EGF; assay type: in vivo, mouse; conditions: for persistence of EGF in the wound bed: mass per mm^2 of tissue, in vivo
# Procedure: Detection of crosslinked EGF on dermal wounds: Persistence of CxEGF, qEGF and soluble EGF in the wound bed was determined using ELISA specific to anti-human EGF. Mice were euthanized at each time point and the wound bed was harvested. The tissue was digested using 7.5 Units/ml collagenase in the presence of 1 μM dithiothreitol (DTT) over 2 h at 37° C. This was centrifuged at 14000 RPM and the supernatant following which ELISA was performed. Specificity of the ELISA was verified using mouse recombinant EGF. Amount of EGF (mg) measured on the wound bed was expressed per surface area (mm^2) of the tissue.
# The feasibility to tether sulfo-SMCC modified nanospheres to graft tissue was first evaluated (FIG. 9). Full thickness splinted wounds (8 mm in diameter) were created on heterozygous (db+/−;BKS.Cg-m+/+Leprdb) mouse as described above. Wound surfaces were treated with a reducing agent (tris(2-carboxyethyl)phosphine; TCEP) to break the disulfide bonds. The crosslinkers and reducing agents were used at non-toxic doses (FIG. 10). […] Immediately after the treatment, wounds were covered with a semi-occlusive dressing to minimize scab formation (Park Shin Ae et al., 2014). Wound beds were harvested at various time points and the presence of EGF attached on the surfaces was determined by ELISA (FIG. 3B). […] A gradual decrease in the amount of surface immobilized EGF was observed after 2 days. […] We note that the number of disulfide bonds available for anchoring CxEGF is difficult to ascertain in vivo and may thus contribute to the partial surface coverage. Secondary validation of the linkage chemistry was done using an in vitro model of the surface chemistry using (3 mercaptopropyl)trimethoxysilane (MPTS) or trimethoxy(propyl)silane (TPS) and maleimide by a reduction in contact angle and increased thickness of deposition (FIG. 3D). The mercapto group on the MPTS simulated sulfhydryl groups present on a native wound bed, and TPS was devoid of any functional group simulating a passivated wound surface.
# HaCaT cells [3] = assay: HaCaT proliferation (MTT) on surfaces with covalently immobilized EGF; assay type: cell-based, human
# Procedure: Human 433 immortalized kertinocytes (HaCaT) cells were cultured in growth medium containing 1% (v/v) serum (FBS). The proliferation rates are expressed as % control when cultured on surfaces [trimethoxy(propyl)silane (TPS) or 3-mercaptopropyl trimethoxysilane (3-MPTS)] immobilized with EGF. As positive control, cells were also cultured in the growth medium containing 10% 437 (v/v) FBS. ***p<0.001, one-way ANOVA followed by Dunnett's multiple comparison test compared with control cultures (cells cultured in media with 1% serum).
# In vitro surface modification: An in vitro model of the wound surface was generated by silanizing glass coverslips with either trimethoxy(propyl)silane (TPS) or 3-mercaptopropyl trimethoxysilane (3-MPTS). Disulfide bonds (if any) on the surface of the silanated coverslips were reduced using 10 μM tris(2-carboxyethyl)phosphine (TCEP) for 10 min to generate an abundance of —SH bonds. These exposed —SH groups were used to covalently immobilize EGF.
# Measuring bioactivity in vitro: Human immortalized kertinocytes (HaCaT cells) were plated on unmodified glass surfaces, or on surfaces covalently immobilized with EGF, or on surfaced with quenched EGF, in Dulbeccos' modified Eagle's medium (DMEM) supplemented with 1% fetal bovine serum and proliferation was determined after 5 days using the MTT assay (Raghunathan et al., 2013). […]
# [4] = tested on: wound bed from a db/db mouse; assay: Histopathological evaluation of wound bed of db/db mice after 11 days; assay type: in vivo
# Description: FIG. 5A-C. Histopathological evaluations of a wound bed from a db/db mouse treated with/without crosslinked EGF over 11 days upon wounding. Scale Bars=500 μm. (A) Measurement of epithelial gap (blue line) and reepithelialization (red line). The epithelial gap was defined as the distance between the advancing edges of keratinocyte migration measured in millimeters. Length of reepithelialization was defined as the length of the layer of proliferating keratinocytes covering the wound area. This value was obtained by measuring s the distance between the free edge of the keratinocyte layer and the base where the cells were still associated with native, non-affected dermal tissue. The final value was the sum of distance in millimeters of both sides. H&E staining. Graphs indicate the mean f standard deviation of epithelial gap/re-epithelialized measure on surface wounds after 11 days with or without treatments. (B) Measurement of the fibrovascular dermal proliferation in the wound bed. Using picrosirius red stain under polarized light the bright collagen fibers of the wound bed are highlighted and automatically measured by the software. The final data is expressed as a percentage of outlined wound area comprised of collagen. Graphs indicate the mean f standard deviation of % collagen measured in surface wounds after 11 days with or without treatments. […] The inflammatory response was assessed using a semi-quantitative scoring system ranging from 0 to 4 where 0 indicates no inflammation, 1 indicates 0-25% of the wound area affected, 2 indicates 25-50% of the wound area affected, 3 indicates 50-75% of the wound area affected, and 4 indicates 75% of the wound area affected. H&E staining. Graphs indicate the mean±standard deviation of inflammation score. *p<0.05 compared with qEGF-6x, #p<0.05 compared with NoTx (t-test/Mann-Whitney rank sum test).
# FIG. 11. Percentage distribution of inflammatory cells in wound bed of diabetic mice at the end of 11 days. […] Results are mean f standard deviation of the ratio of positive cells to total number of cells in the wound bed.
# as §1
# deep-partial burn wounds = conditions: cited from earlier work
# HaCaT cells [5] = assay: HaCaT proliferation with soluble EGF; assay type: cell-based, human; conditions: 1% FBS, 0-80 ng/ml soluble EGF
# Procedure: FIG. 8. In vitro proliferation rates of spontaneously immortalized human keratinocytes (HaCaT cells), cultured in growth medium containing 1% (v/v) serum (FBS), treated with 0-80 ng/ml soluble EGF. Results are mean f standard deviation, ***p<0.001 (ANOVA followed by Dunnett's multiple comparison test) compared with control cultures.
# EGF is a key growth factor involved in triggering wound re-epithelialization, one of the critical early events in wound closure, whose prolonged exposure is required for eliciting a cellular response (Bennett N. T. and Schultz G. S., 1993, Bennett N. T. and Schultz G. S., 1993, 171 Gipson and Inatomi, 1995, Jost et al., 2000). […] A full thickness splinted wound (8 mm in diameter) was created on each heterozygous (db+/−; BKS.Cg-m+/+ Leprdb) mouse as described previously (Park Shin Ae et al., 2014). […] Functional bioactivity of EGF was determined in vitro using spontaneously transformed keratinocytes (HaCaT cell line) from histologically normal skin (FIG. 8). As a possible contributor to the lack of significant positive effect, we observed a rapid loss of recombinant human EGF from the surface of wounds within 1 h of topical administration (FIG. 2B). […]
# [6] = 6x, every other day over 11 days
# [7] = 30 ng crosslinked onto TCEP treated wound surface
# [8] = ratio of positive cells to total cells, after 11 days
substance,measurement,setting,value
"CxEGF: Human recombinant EGF conjugated with sulfo-SMCC, covalently crosslinked onto TCEP-reduced wound surface",wound closure rate (reduction of wound radii),"[1]; 1x, immobilization only once immediately after wounding",no significant effects on wound closure rate
same,wound closure rate (decrease in wound radius per day),"[1]; 3x, every 4 days",significantly higher wound closure rate
same,wound closure rate (decrease in wound radius per day),[1]; [6],significantly higher wound closure rate
same,percentage wound closure,[1]; db/db mice,significant acceleration of wound closure; also recorded: significantly improved wound healing
same,apparent surface coverage,[2]; [7],2 pg/mm^2
same,sustained surface immobilization of the growth factor,[2]; [7],2 days
same,persistence of EGF in the wound bed,[2]; ELISA,increases persistence of EGF on the wound surface
same,apparent surface coverage (equivalent),[2]; equivalent of the pg/mm^2 value,1.99×10^8 molecules/mm^2
same,surface coverage as fraction of a theoretical monolayer of EGF,[2]; theoretical monolayer 213.6 pg/mm^2,1/100
same,proliferation rate (% control),"HaCaT cells [3]; HaCaT, 1% FBS, TPS or 3-MPTS surfaces immobilized with EGF",strongly promotes proliferation
same,increase in cell proliferation,"HaCaT cells [3]; immobilized on MPTS or TPS coated glass, MTT, after 3 days of treatment",over 2 fold
same,inflammation (semi-quantitative score 0 to 4),"[4]; 6x, day 11, H&E",reduction in inflammation
same,epithelial gap,"[4]; 6x, day 11, H&E, versus qEGF, no treatment or soluble EGF",dramatic decreases in epithelial gap
same,inflammation (semi-quantitative score 0 to 4),"[4]; 6x, day 11, H&E, listed as Cross linked EGF",elicited less inflammation
same,collagen content,"[4]; 6x, day 11, picrosirius red",comparable collagen content
same,F-480 positive macrophages in wound bed,[4]; [8],No statistically significant differences
same,GR1 positive granulocytes in wound bed,[4]; [8],No statistically significant differences
aFGF: topical recombinant human acidic fibroblast growth factor,fully healed rate,"deep-partial burn wounds; deep-partial burn wounds, versus placebo",53.85%
same,mean healed time of the burn wounds,"deep-partial burn wounds; placebo 18.92±0.49, p=0.035",17.23±0.53
"qEGF: s-SMCC conjugated EGF with its maleimide group quenched with β-mercaptoethanol (NSDSECPLSHDGYCLHDGVCMYIEALDKYACNCVVGYIGERCQYRDLKWWELR; Epidermal growth factor sulfo-SMCC, maleimide quenched with β-mercaptoethanol; UniProt P01133 971-1023, looked up) [reference compound]",wound closure rate (decrease in wound radius per day),[1]; [6],ineffective in altering wound healing rates
same,percentage wound closure,[1]; db/db mice,NoTx group had a significantly higher percentage wound closure compared to the qEGF group
"sEGF: Human recombinant EGF (ProspecBio) dissolved in 5% (w/v) polyethylene glycol, applied topically",percentage wound closure / epithelial closure,"[1]; soluble EGF 300 ng topically twice daily, over 11 days, db/db mice",did not significantly alter wound healing or epithelial closure; also recorded: did not promote epithelial closure
same,persistence of EGF in the wound bed,[2]; ELISA,rapidly removed from wound surface
same,loss of recombinant human EGF from the surface of wounds after topical administration,"[2]; topical administration, wound surface, ELISA",≤ 1 h
same,in vitro proliferation rate,HaCaT cells [5],increased cell proliferation
